Reference: BigSolDB 2.1

O=c1[nH]c2ccccc2n1CCCN1CCC(n2c(=O)[nH]c3cc(Cl)ccc32)CC1
solubility (mole fraction)
Settings | 278.15 K | 283.15 K | 288.15 K | 293.15 K | 298.15 K | 303.15 K | 308.15 K | 313.15 K | 318.15 K
in DMAc | 0.000805 | 0.000971 | 0.00116 | 0.00136 | 0.00158 | 0.00182 | 0.00208 | 0.00234 | 0.00262
in DMF | 7.44e-05 | 9.91e-05 | 0.000131 | 0.00017 | 0.000223 | 0.000282 | 0.000369 | 0.000471 | 0.000575
in DMSO | 0.000283 | 0.00034 | 0.000408 | 0.000489 | 0.000584 | 0.000698 | 0.000832 | 0.00099 | 0.00118
in acetonitrile | 1.2e-07 | 1.85e-07 | 2.54e-07 | 3.43e-07 | 4.6e-07 | 6.68e-07 | 8.73e-07 | 1.07e-06 | 1.46e-06
in ethanol | 8.55e-06 | 1.09e-05 | 1.47e-05 | 1.86e-05 | 2.28e-05 | 2.93e-05 | 3.6e-05 | 4.53e-05 | 5.35e-05
in ethylene glycol | 1.11e-05 | 1.43e-05 | 1.84e-05 | 2.21e-05 | 2.93e-05 | 3.47e-05 | 4.43e-05 | 5.56e-05 | 6.6e-05
in isobutanol | 1.05e-05 | 1.35e-05 | 1.8e-05 | 2.23e-05 | 2.83e-05 | 3.67e-05 | 4.58e-05 | 5.68e-05 | 7.17e-05
in isopropanol | 7.95e-06 | 9.92e-06 | 1.45e-05 | 1.84e-05 | 2.27e-05 | 2.74e-05 | 3.45e-05 | 4.33e-05 | 5.42e-05
in methanol | 8.19e-06 | 9.89e-06 | 1.21e-05 | 1.6e-05 | 2.07e-05 | 2.56e-05 | 3.17e-05 | 4.03e-05 | 4.9e-05
in n-butanol | 1.23e-05 | 1.64e-05 | 2.19e-05 | 2.85e-05 | 3.66e-05 | 4.45e-05 | 5.47e-05 | 7.02e-05 | 8.57e-05
in n-propanol | 1.18e-05 | 1.45e-05 | 1.9e-05 | 2.55e-05 | 3.25e-05 | 4.17e-05 | 5.05e-05 | 6.43e-05 | 7.85e-05
in water | 8.77e-08 | 1.05e-07 | 1.38e-07 | 1.75e-07 | 2.22e-07 | 2.76e-07 | 3.35e-07 | 4.16e-07 | 5.11e-07
